Experimental findings from patent US10550105B2 (Ribon Therapeutics Inc., priority 2018, dated 2020) are described below.

Where only a bound is given, the exact number is not on record here.

This assay deals with PARP7 (Homo sapiens (Human), UniProt Q7Z3E1). Briefly: Enzymatic assay for inhibition of PARP7: TR-FRET displacement of biotinylated Probe A from the TIPARP active site. Type of assay: binding. The conditions noted are these: Table A-1. In a few lines: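 TR-FRET, ex 320 nm / em 615 and 665 nm. Signal ratio reflects complex formation.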
PARP7, sequence (Q7Z3E1 whole entry): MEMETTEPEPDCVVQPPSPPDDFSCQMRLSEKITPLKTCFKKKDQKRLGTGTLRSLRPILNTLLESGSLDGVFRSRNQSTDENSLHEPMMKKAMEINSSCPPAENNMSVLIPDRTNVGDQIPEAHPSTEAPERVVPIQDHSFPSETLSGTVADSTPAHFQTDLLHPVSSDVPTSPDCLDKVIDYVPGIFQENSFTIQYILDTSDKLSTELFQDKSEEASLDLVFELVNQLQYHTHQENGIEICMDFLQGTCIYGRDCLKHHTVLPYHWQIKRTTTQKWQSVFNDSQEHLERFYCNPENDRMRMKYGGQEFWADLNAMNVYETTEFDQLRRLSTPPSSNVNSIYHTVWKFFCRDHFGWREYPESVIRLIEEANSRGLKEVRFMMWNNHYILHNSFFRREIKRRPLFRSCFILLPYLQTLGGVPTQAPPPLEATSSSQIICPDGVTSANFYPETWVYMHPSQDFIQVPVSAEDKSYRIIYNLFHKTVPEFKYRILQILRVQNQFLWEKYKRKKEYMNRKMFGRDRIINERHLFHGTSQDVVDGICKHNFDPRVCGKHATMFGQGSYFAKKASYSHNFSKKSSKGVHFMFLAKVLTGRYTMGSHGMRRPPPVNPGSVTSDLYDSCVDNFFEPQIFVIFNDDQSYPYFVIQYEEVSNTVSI

The compound `CN1CCN(C(=O)CCOC[C@H]2c3ccccc3CN2c2cn[nH]c(=O)c2C(F)(F)F)CC1` [Example 422, (R)-5-(1-((3-(4-Methylpiperazin-1-yl)-3-oxopropoxy)methyl)isoindolin-2-yl)-4-(trifluoromethyl)pyridazin-3(2H)-one] yielded an IC50 of at least 1000 nM.

Regarding `N#CCCC(=O)N1CCN(C(=O)CCOC[C@@H]2c3ccccc3CN2c2cn[nH]c(=O)c2C(F)(F)F)CC1` [Example 423, (S)-4-Oxo-4-(4-(3-((2-(6-oxo-5-(trifluoromethyl)-1,6-dihydropyridazin-4-yl)isoindolin-1-yl)methoxy)propanoyl)piperazin-1-yl)butanenitrile], the IC50 was below 100 nM.

Compound `N#CCCC(=O)N1CCN(C(=O)CCOC[C@H]2c3ccccc3CN2c2cn[nH]c(=O)c2C(F)(F)F)CC1` [Example 424, (R)-4-Oxo-4-(4-(3-((2-(6-oxo-5-(trifluoromethyl)-1,6-dihydropyridazin-4-yl)isoindolin-1-yl)methoxy)propanoyl)piperazin-1-yl)butanenitrile] gave an IC50 of at least 1000 nM.

In turn, `N#Cc1ccc(N2CCN(C(=O)CCNC[C@H]3c4ccccc4CN3c3cn[nH]c(=O)c3Cl)CC2)nc1` [Example 425, (R)-6-(4-(3-(((2-(5-Chloro-6-oxo-1,6-dihydropyridazin-4-yl)isoindolin-1-yl)methyl)amino)propanoyl)piperazin-1-yl)nicotinonitrile] had a half-maximal inhibitory concentration (IC50) of at least 1000 nM.

The compound `N#Cc1ccc(N2CCN(C(=O)CCNC[C@@H]3c4ccccc4CN3c3cn[nH]c(=O)c3Cl)CC2)nc1` [Example 426, (S)-6-(4-(3-(((2-(5-Chloro-6-oxo-1,6-dihydropyridazin-4-yl)isoindolin-1-yl)methyl)amino)propanoyl)piperazin-1-yl)nicotinonitrile] displayed an IC50 below 100 nM.

Take `CN(CCC(=O)N1CCN(c2ccc(C#N)cn2)CC1)C[C@@H]1c2ccccc2CN1c1cn[nH]c(=O)c1C(F)(F)F` [Example 427, (S)-6-(4-(3-(Methyl((2-(6-oxo-5-(trifluoromethyl)-1,6-dihydropyridazin-4-yl)isoindolin-1-yl)methyl)amino)propanoyl)piperazin-1-yl)nicotinonitrile]: the concentration for half-maximal inhibition (IC50) is below 100 nM.

`CN(CCC(=O)N1CCN(c2ccc(C#N)cn2)CC1)C[C@H]1c2ccccc2CN1c1cn[nH]c(=O)c1C(F)(F)F` [Example 428, (R)-6-(4-(3-(Methyl((2-(6-oxo-5-(trifluoromethyl)-1,6-dihydropyridazin-4-yl)isoindolin-1-yl)methyl)amino)propanoyl)piperazin-1-yl)nicotinonitrile] displayed a half-maximal inhibitory concentration (IC50) of 100 to 1000 nM.

`CN(CCC(=O)N1CCN(c2ccc(C#N)cn2)CC1)C[C@@H]1c2ccccc2CN1c1cn[nH]c(=O)c1Cl` [Example 429, (S)-6-(4-(3-(((2-(5-Chloro-6-oxo-1,6-dihydropyridazin-4-yl)isoindolin-1-yl)methyl)(methyl)amino)propanoyl)piperazin-1-yl)nicotinonitrile] gave an IC50 below 100 nM.

In turn, `CN(CCC(=O)N1CCN(c2ccc(C#N)cn2)CC1)C[C@H]1c2ccccc2CN1c1cn[nH]c(=O)c1Cl` [Example 430, (R)-6-(4-(3-(((2-(5-Chloro-6-oxo-1,6-dihydropyridazin-4-yl)isoindolin-1-yl)methyl)(methyl)amino)propanoyl)piperazin-1-yl)nicotinonitrile] yielded an IC50 of 100 to 1000 nM.

With `N#Cc1ccc(N2CCN(C(=O)CCOC[C@@H]3c4ncccc4CN3c3cn[nH]c(=O)c3Cl)CC2)nc1` [Example 431, (S)-6-(4-(3-((6-(5-Chloro-6-oxo-1,6-dihydropyridazin-4-yl)-6,7-dihydro-5H-pyrrolo[3,4-b]pyridin-7-yl)methoxy)propanoyl)piperazin-1-yl)nicotinonitrile], the 50% inhibitory concentration (IC50) was below 100 nM.

Turning to `N#Cc1ccc(N2CCN(C(=O)CCOC[C@H]3c4ncccc4CN3c3cn[nH]c(=O)c3Cl)CC2)nc1` [Example 432, (R)-6-(4-(3-((6-(5-Chloro-6-oxo-1,6-dihydropyridazin-4-yl)-6,7-dihydro-5H-pyrrolo[3,4-b]pyridin-7-yl)methoxy)propanoyl)piperazin-1-yl)nicotinonitrile], the IC50 was 100 to 1000 nM.

For `O=C(CCNC[C@@H]1c2ccccc2CN1c1cn[nH]c(=O)c1C(F)(F)F)N1CCN(c2ncc(C(F)(F)F)cn2)CC1` [Example 433, (S)-5-(1-(((3-Oxo-3-(4-(5-(trifluoromethyl)pyrimidin-2-yl)piperazin-1-yl)propyl)amino)methyl)isoindolin-2-yl)-4-(trifluoromethyl)pyridazin-3(2H)-one], the half-maximal inhibitory concentration (IC50) was below 100 nM.

For `O=C(CCNC[C@H]1c2ccccc2CN1c1cn[nH]c(=O)c1C(F)(F)F)N1CCN(c2ncc(C(F)(F)F)cn2)CC1` [Example 434, (R)-5-(1-(((3-Oxo-3-(4-(5-(trifluoromethyl)pyrimidin-2-yl)piperazin-1-yl)propyl)amino)methyl)isoindolin-2-yl)-4-(trifluoromethyl)pyridazin-3(2H)-one], the concentration for half-maximal inhibition (IC50) was at least 1000 nM.

`N#Cc1ccc(N2CCN(C(=O)c3cccc(OCC4CCCN4c4cn[nH]c(=O)c4C(F)(F)F)c3)CC2)nc1` (stereo not shown) [Example 435, 6-(4-(3-((1-(6-Oxo-5-(trifluoromethyl)-1,6-dihydropyridazin-4-yl)pyrrolidin-2-yl)methoxy)benzoyl)piperazin-1-yl)nicotinonitrile]: the IC50 is below 100 nM.

`O=C(c1cccc(OCC2CCCN2c2cn[nH]c(=O)c2C(F)(F)F)c1)N1CCn2c(nnc2C(F)(F)F)C1` (stereo not shown) [Example 436, 4-(Trifluoromethyl)-5-(2-((3-(3-(trifluoromethyl)-5,6,7,8-tetrahydro-[1,2,4]triazolo[4,3-a]pyrazine-7-carbonyl)phenoxy)methyl)pyrrolidin-1-yl)pyridazin-3(2H)-one] showed an IC50 of 100 to 1000 nM.

Take `N#Cc1cnc(N2CCN(C(=O)c3cccc(OCC4CCCN4c4cn[nH]c(=O)c4C(F)(F)F)c3)CC2)nc1` (stereo not shown) [Example 437, 2-(4-(3-((1-(6-Oxo-5-(trifluoromethyl)-1,6-dihydropyridazin-4-yl)pyrrolidin-2-yl)methoxy)benzoyl)piperazin-1-yl)pyrimidine-5-carbonitrile]: the half-maximal inhibitory concentration (IC50) is below 100 nM.

`N#Cc1cnc(N2CCN(C(=O)c3cccc(OC[C@H]4CCCN4c4cn[nH]c(=O)c4C(F)(F)F)c3)CC2)nc1` [Example 438, (R)-2-(4-(3-((1-(6-Oxo-5-(trifluoromethyl)-1,6-dihydropyridazin-4-yl)pyrrolidin-2-yl)methoxy)benzoyl)piperazin-1-yl)pyrimidine-5-carbonitrile]: the IC50 was at least 1000 nM.

Consider `N#Cc1cnc(N2CCN(C(=O)c3cccc(OC[C@@H]4CCCN4c4cn[nH]c(=O)c4C(F)(F)F)c3)CC2)nc1` [Example 439, (S)-2-(4-(3-((1-(6-Oxo-5-(trifluoromethyl)-1,6-dihydropyridazin-4-yl)pyrrolidin-2-yl)methoxy)benzoyl)piperazin-1-yl)pyrimidine-5-carbonitrile], for which the half-inhibitory concentration (IC50) was below 100 nM.

Compound `O=C(c1cccc(OC[C@@H]2CCCN2c2cn[nH]c(=O)c2C(F)(F)F)c1)N1CCN(c2ccc(C(F)(F)F)cn2)CC1` [Example 440, (S)-4-(Trifluoromethyl)-5-(2-((3-(4-(5-(trifluoromethyl)pyridin-2-yl)piperazine-1-carbonyl)phenoxy)methyl)pyrrolidin-1-yl)pyridazin-3(2H)-one] returned an IC50 below 100 nM.
